Read-outs that look alike come from different tables or passages of the source.
Tests used:
[1] = Clarity of test compound solutions at […] (aqueous solubility); settings: for solubility at 24 h: pH 4, aqueous buffer; for Aqueous Solubility pH~7 (visual clarity): […] active-form equivalents, pH 7 (50 mM phosphate), after 24 hours
Experimental: A 50-mg/mL solution of a compound of formula (I) or a compound of formula (II) in H2O was titrated with 0.1 M NaOH until pH reached 5.7-6.1. Any solid that precipitated was filtered. The remaining solutions or phase-separated oil/H2O mixtures were freeze-dried to produce zwitterions as fluffy solids.
The aqueous solubility of Compounds #14, #15 and #16 were determined by a modified procedure. In these cases, the samples were targeted at a pH of 4 and 7 and were measured exclusively using 100 mM phosphate buffers. For both pH's, measured samples were initially prepared at ˜3 mg/ml and ˜10 mg/ml concentrations and for samples that dissolved rapidly, additional compound was added to the solution until saturated solutions were obtained.

[2] = system: Staphylococcus aureus (OC8525), a methicillin-resistant strain (MRSA); assay: In vivo efficacy in a mouse systemic infection model; settings: for % Survival: i.v., single dose level, mice; for ED50: Staphylococcus aureus, 72 h, Swiss Webster mice infected i.p. with MRSA, 3 day survival, normalized to parent content
Experimental: Female Swiss Webster mice weighing between 20-25 g were infected intraperitoneally with approximately 5×10^5 colony forming units (CFU) Staphylococcus aureus (OC8525), a methicillin-resistant strain (MRSA), in 7% mucin. One hour later, the animals were given the test compound intravenously or orally in a dose volume of 0.2 mL. Each animal test group consisted of eight animals. The test compounds were prepared immediately before dosing in 5% dextrose in water (D5W) and diluted further in D5W for i.v. and p.o. administration. The mice were observed over a three day period and ED50 values were calculated from the resulting % survival curves (see Table 13, below). The measured ED50 values were normalized to the content of (E)-7-(3-(2-amino-1-fluoroethylidene)piperidin-1-yl)-1-cyclopropyl-6-fluoro-8-methoxy-4-oxo-1,4-dihydroquinoline-3-carboxylic acid. For some compounds, in vivo efficacy was determined by testing a group of eight mice at a single dose level only. In these cases, the data presented in Table 13, below are reported as percent survival at the designated dose.

[3] = 50 mM citrate buffer, thermodynamic from solid
[4] = oral dose 1 h later, read-out: ED50 p.o.
[5] = iv, i.v. dose 1 h later, read-out: ED50 i.v.

SMILES | solubility at 24 h [1, 3] | Aqueous Solubility pH~7 (visual clarity) [1] | ED50 [2, 4] | ED50 [2, 5] | also measured
CN[C@@H](C)C(=O)NC/C(F)=C1/CCCN(c2c(F)cc3c(=O)c(C(=O)O)cn(C4CC4)c3c2OC)C1.Cl [Compound 7, 1-Cyclopropyl-6-fluoro-7-{3-[1-fluoro-2-((2S)-2-methylamino-propionylamino)-ethylidene]-piperidin-1-yl}-8-methoxy-4-oxo-1,4-dihydro-quinoline-3-carboxylic acid hydrochloride] | > 3300 µg/mL | Yes |  |  | % Survival ([2]; at 2.1 mg/kg/day): 0% at 2.1 mg/kg/day
COc1c(N2CCC/C(=C(\F)CNC(=O)[C@H](C)NC(=O)[C@H](C)N)C2)c(F)cc2c(=O)c(C(=O)O)cn(C3CC3)c12.Cl [Compound 2, 7-(3-{2-[(2S)-2-((2S)-2-Amino-propionylamino)-propionylamino]-1-fluoro-ethylidene}-piperidin-1-yl)-1-cyclopropyl-6-fluoro-8-methoxy-4-oxo-1,4-dihydro-quinoline-3-carboxylic acid hydrochloride] | < 3300 µg/mL | No | > 14.9 mg/kg | 2.6 mg/kg | 
COc1c(N2CCC/C(=C(\F)CNC(=O)[C@@H](N)Cc3ccccc3)C2)c(F)cc2c(=O)c(C(=O)O)cn(C3CC3)c12.Cl [Compound 3, 7-{3-[2-((2S)-2-Amino-3-phenyl-propionylamino)-1-fluoro-ethylidene]-piperidin-1-yl}-1-cyclopropyl-6-fluoro-8-methoxy-4-oxo-1,4-dihydro-quinoline-3-carboxylic acid hydrochloride] | < 3300 µg/mL | No | > 14.8 mg/kg | 1.4 mg/kg | 
CCOP(=O)(NCC(F)=C1CCCN(c2c(F)cc3c(=O)c(C(=O)[O-])cn(C4CC4)c3c2OC)C1)OCC.[Na+] [Compound 13, 1-Cyclopropyl-7-{3-[2-(diethoxy-phosphorylamino)-1-fluoro-ethylidene]-piperidin-1-yl}-6-fluoro-8-methoxy-4-oxo-1,4-dihydro-quinoline-3-carboxylic acid sodium salt] |  |  |  |  | solubility at 24 h ([1]; thermodynamic from solid): < 3300 µg/mL; solubility ([1]; pH 7.8, aqueous buffer, thermodynamic from solid): 1800 µg/mL; % Survival ([2]; at 3.8 mg/kg/day): 12.5% at 3.8 mg/kg/day
COc1c(N2CCC/C(=C(\F)CNC(=O)[C@@H](N)CCCCN)C2)c(F)cc2c(=O)c(C(=O)O)cn(C3CC3)c12.Cl.Cl [Compound 9, 1-Cyclopropyl-7-{3-[2-((2S)-2,6-diamino-hexanoylamino)-1-fluoro-ethylidene]-piperidin-1-yl}-6-fluoro-8-methoxy-4-oxo-1,4-dihydro-quinoline-3-carboxylic acid dihydrochloride] | > 3300 µg/mL | Yes |  |  | % Survival ([2]; at 1.9 mg/kg/day): 25% at 1.9 mg/kg/day
COc1c(N2CCC/C(=C(\F)CNC(=O)[C@H](CC(C)C)NC(=O)[C@H](C)N)C2)c(F)cc2c(=O)c(C(=O)O)cn(C3CC3)c12.Cl [Compound 10, 7-(3-{2-[(2S)-2-((2S)-2-Amino-propionylamino)-4-methyl-pentanoylamino]-1-fluoro-ethylidene}-piperidin-1-yl)-1-cyclopropyl-6-fluoro-8-methoxy-4-oxo-1,4-dihydro-quinoline-3-carboxylic acid hydrochloride] | < 3300 µg/mL | No |  |  | % Survival ([2]; at 2.4 mg/kg/day): 25% at 2.4 mg/kg/day

Further lines, with some results ahead:

solubility at 24 h [1, 3] | Aqueous Solubility pH~7 (visual clarity) [1] | SMILES | ED50 [2, 4] | ED50 [2, 5] | also measured
< 3300 µg/mL | No | COc1c(N2CCC/C(=C(\F)CNC(=O)[C@@H](N)CC(=O)O)C2)c(F)cc2c(=O)c(C(=O)O)cn(C3CC3)c12.Cl [Compound 5, 7-{3-[2-((2S)-2-Amino-3-carboxy-propionylamino)-1-fluoro-ethylidene]-piperidin-1-yl}-1-cyclopropyl-6-fluoro-8-methoxy-4-oxo-1,4-dihydro-quinoline-3-carboxylic acid hydrochloride] | > 15.7 mg/kg | > 3.9 mg/kg | 
< 3300 µg/mL | No | COc1c(N2CCC/C(=C(\F)CNC(=O)OCc3oc(=O)oc3C)C2)c(F)cc2c(=O)c(C(=O)O)cn(C3CC3)c12 [Compound 8, 1-Cyclopropyl-6-fluoro-7-{3-[1-fluoro-2-(5-methyl-2-oxo-[1,3]dioxol-4-ylmethoxycarbonylamino)-ethylidene]-piperidin-1-yl}-8-methoxy-4-oxo-1,4-dihydro-quinoline-3-carboxylic acid] |  |  | 
< 3300 µg/mL | No | CCOC(=O)c1cn(C2CC2)c2c(OC)c(N3CCC/C(=C(\F)CN)C3)c(F)cc2c1=O.Cl [Compound 11, 7-[3-(2-Amino-1-fluoro-ethylidene)-piperidin-1-yl]-1-cyclopropyl-6-fluoro-8-methoxy-4-oxo-1,4-dihydro-quinoline-3-carboxylic acid ethyl ester hydrochloride] | 6.7 mg/kg | 1.2 mg/kg | 

Reference: patent US20110172193A1, “PRO-DRUGS OF (E)-7-(3-(2-AMINO-1-FLUOROETHYLIDENE)PIPERIDIN-1-YL)-1-CYCLOPROPYL-6-FLUORO-8-METHOXY-4-OXO-1,4-DIHYDROQUINOLINE-3-CARBOXYLIC ACID” (priority 2010, published 2011)
